The subject of data set [1] is adjuvant-induced arthritis rat models. Nature of the data set: Adjuvant-induced osteoarthritis pain, foot swelling degree. The format is in vivo, rats. As to conditions: X ± S, n = 10, 10 mg/Kg. As for the experimental part:
Typical model for studying inflammatory pain medically was used to evaluate the therapeutic effects of compounds on inflammatory pain. 0.1 mL Freund's complete adjuvant was intradermally injected to toe of the left hind foot of the rats in each group to obtain adjuvant-induced arthritis rat models. Foot volume method was used to measure primary and secondary foot swelling degree (swelling degree=volume after inflammation−volume before inflammation), and polyarticular arthritis were scored (5 scoring grades: 0 represents no red swelling; 4 represents red swelling at all the paws including anklebone. The scores are accumulated according to the lesion degree of the rest three limbs not injected with adjuvant, and the highest score is 12). Before inflammation and at 6 h, 12 h, 18 h and 24 h after inflammation, Paw Volume Meter was used to measure the foot volume at the inflammatory side, and the swelling degree was calculated. The model can represent inflammatory pain including, but not only limited to: osteoarthritis pain and fibromyalgia syndrome, inflammatory pain of rheumatic and rheumatoid arthritis, inflammatory pain of endometriosis, inflammatory toothache, ankylosing spondylitis pain, and gouty arthritis pain.

Data set [2] has as its system SNI neuropathic pain. Nature of the data set: Neuropathic pain mouse model induced by spared nerve injury (SNI). The format is in vivo, C57BL/6 mice. As to conditions: SNI mice, 10 mg/kg i.p. (gabapentin 100 mg/kg), 4 h after administration. As for the experimental part: In the Experimental example, compounds to be evaluated or compounds to be tested or test compounds used are the Compounds 1-46 prepared in the Examples according to the invention. In the Experimental example, all the agents for injection, including compounds to be evaluated or compounds to be tested or test compounds, and positive control drug, were dissolved in a mixed solvent of PEG400:Tween 80:normal saline (at a volume ratio of 5:5:90), at a concentration of 5 mg/mL.
Neuropathic pain mouse model induced by spared nerve injury (SNI) is a common animal model for studying neuropathic pain medically. The invention uses the model to evaluate the therapeutic effects of the compounds on neuropathic pain, wherein the model can represent peripheral neuropathic pain including, but not limited to post-herpetic neuralgia, pain caused by diabetic perineuropathy, neurothlipsis and exudation caused by tumor, lumbar surgery failure syndrome, neuropathic pain caused by lumbar disc protrusion, postpartum neuralgia, trigeminal neuralgia, chemotherapy-induced multiple neuropathic pain, post-radiotherapy plexopathy, and radicular neuralgia.
C57BL/6 mice (purchased from Shanghai SLAC Laboratory Animal Co., Ltd) were anesthetized by intraperitoneal injection with pentobarbital sodium (40 mg/kg), and skin from knee joint to gluteal region was subjected to skin preparation and disinfection. After the mice were fixed, the knee joint part was cut about 1 cm longitudinally with bistoury, and muscle tissues were separated by blunt dissection to expose sciatic nerve. The tibial and common peroneal nerve branches of sciatic nerve stem were cut off carefully, and the cut was then stitched up. The mice was placed in a clean observation cage. In the sham-operation group, only sciatic nerve was exposed without cutting the tibial and common peroneal nerve branches. From the day before the experiment to 24 h after the operation, the plantar edges of the mice were stimulated everyday by […] (Ugo Basile Company (Italy), Product ID: 37450), and data was collected automatically to obtain the threshold value of mice to mechanical stimulation. […] The positive control drug gabapentin was administered at a dose of 100 mg/kg. All the agents to be injected were dissolved in a mixed solvent of PEG400:Tween 80:normal saline (at a volume ratio of 5:5:90), at a concentration of 5 mg/mL. By comparing the threshold values (the acting force of when the mouse retracting the paw) at different administration time in different administration groups, the compound was evaluated for its analgesic effect on neuropathic pain.

Data set [3] relates to zebrafish embryos. The data set is classed as in vivo. The settings on record: for Death number (72 h): n = 30; for Body length (72 h) / Hatching number (72 h) / Heartbeat (72 h) / Unhatching number (72 h) / hatching rate: zebrafish, in vivo. Here is the method:
By the same method described above, zebrafish fertilized eggs were cultured. 7 Groups were set for each test compound, including 5 experimental groups relating to the test compound at different concentrations (solutions containing the test compound at different concentrations were prepared by using zebrafish embryo culture medium, wherein the concentrations were 100 mg/L, 10 mg/L, 1 mg/L, 0.1 mg/L, 0.01 mg/L), 1 solvent control group (DMSO) and 1 blank control group. The fertilized eggs were placed and cultured in a 28.5° C. incubator, a certain humidity was ensured in the culture environment. Culture medium containing a test compound was prepared, and the culture medium was added to a 96-well plate in advance, and each fertilized egg (by reference to the experimental method in OECD No. 212 document, fertilized eggs, which developed normally within 24 h after fertilization, were selected and subjected to exposure. Transparent fish eggs visible to naked eye were normally fertilized, while white fish eggs were dead and discarded. After the selection, the normally fertilized eggs had begun to divide as observed under microscope) was then independently placed in a different well, and cultured in the culture medium containing a test compound at a different concentration. Embryo development status at different stages were observed and photographed with invert microscope, including:
I. Morphological observation: the developmental states of fertilized eggs (yolk being coagulated or not, eye spot, pericardial sac being edematous or not, bloodstream being existing or not, tail development status, and the like) were observed and photographed at 48 h, 72 h, and 96 h;
II. Hatching number and death number were counted at 72 h after fertilization, and hatching rate and mortality were calculated;
III. Body length of the hatched young fishes at 72 h was measured (measured after photographing with invert microscope); […]
(§1) V. Heartbeat of young fishes (times/min) was recorded at 72 h and 96 h after fertilization (Recording method: heartbeat of young fishes could be clearly observed under microscope, and the number of heartbeats was recorded for 30 s).

In data set [4] the test system is zebrafish embryos. The format is in vivo. The settings on record: for Death number (72 h) / Hatching number (72 h) / Unhatching number (72 h): n = 30. As for the experimental part: Fertilized eggs (donated by Zebrafish Research Group, School of Life Sciences, Xiamen University) were incubated in freshly prepared zebrafish embryo culture medium, which was replaced by fresh culture medium every day, and cultured in 28.5° C. incubator. Pure water was placed in the incubator to ensure a certain humidity in the culture environment. The formulation for zebrafish embryo culture medium was following: 5 mM NaCl, 0.17 mM KCl, 0.33 mM CaCl2, 0.33 mM MgSO4, 10-5% methylene blue. The culture medium was prepared with pure water. For example, NaCl: 292.2 mg, KCl: 12.68 mg, CaCl2: 36.63 mg, MgSO4: 39.72 mg, and methylene blue: 0.1 μL were needed for the preparation of 1 L culture medium.
7 Groups were set for each test compound, including 5 experimental groups relating to the test compound at different concentrations (solutions containing the test compound at different concentrations were prepared by using zebrafish embryo culture medium, wherein the concentrations were 10 mg/L, 3 mg/L, 1 mg/L, 0.3 mg/L, 0.1 mg/L), 1 solvent control group (DMSO) and 1 blank control group. The positive control drug was OTC analgesic ibuprofen at concentrations as described above. A 96-well cell culture plate was used to perform the experiment, three wells in parallel were used for each experimental group, and 10 fish eggs were contained in each well.
Culture medium containing a test compound was prepared, and the culture medium was added to a 96-well plate in advance, and each fertilized egg (by reference to the experimental method in OECD No. 212 document, fertilized eggs, which developed normally within 2 h after fertilization, were selected and subjected to exposure. Transparent fish eggs visible to naked eye were normally fertilized, while white fish eggs were dead and discarded. After the selection, the normally fertilized eggs had begun to divide as observed under microscope) was then independently placed in a different well, and cultured in the culture medium containing a test compound at a different concentration. Embryo development status at different stages was observed and photographed with invert microscope, including: […]
II. Hatching number and death number were counted at 72 h after fertilization, and hatching rate and mortality were calculated; […]
as §1

Experimental findings from patent US10174015B2, “Substituted heterocyclic derivative, preparation method and use thereof” (Xiamen University, priority 2014, dated 2019) are described below.

A word on the mortality: it is the share of the test organisms that died. The low end stands for more survivors, the high end for fewer survivors.

Like-named read-outs stand apart in the source and are kept apart here. Marks after values point to notes of the source that are not given here.

As to `O=C(Cc1cccc(-c2ccccc2)c1)N1CCOC1=O` [Compound 14, 3-Biphenylacetyl Oxazolidinone], the “Foot swelling degree after inflammation” value in data set [1] (6 h) is recorded as 0.75 ± 0.11^c mL; in data set [1] (12 h), 1.06 ± 0.19^c mL; in data set [1] (18 h), 1.43 ± 0.25^b mL; in data set [1] (24 h), 1.36 ± 0.18^b mL.

On to `COc1ccc2c(c1)c(CC(=O)O)c(C)n2C(=O)c1ccc(Cl)cc1` [indometacin, reference compound], for which the “Foot swelling degree after inflammation” value is reported as 0.57 ± 0.16^c mL in data set [1] (6 h), 0.96 ± 0.21^c mL in data set [1] (12 h), 1.32 ± 0.22^b mL in data set [1] (18 h) and 1.08 ± 0.26^c mL in data set [1] (24 h).

Regarding `NCC1(CC(=O)O)CCCCC1` [gabapentin, reference compound], the “effect of inhibiting central neuropathic pain” value in data set [2] was “disappeared gradually”.

Regarding `CC(C)Cc1ccc(C(C)C(=O)O)cc1` (centres unmarked) [ibuprofen, reference compound], the “Death number (72 h)” value in data set [3] (0.01 mg/L) is given as 0; in data set [3] (0.1 mg/L), 0; in data set [3] (1 mg/L), 2; in data set [3] (10 mg/L), 30; in data set [3] (100 mg/L) it was 30; in data set [4] (0.1 mg/L), 8. Further, the “Death number (72 h)” value in data set [4] (0.3 mg/L) was determined as 8; in data set [4] (1 mg/L), 13; in data set [4] (3 mg/L), 28; in data set [4] (10 mg/L), 30. The compound also showed a mortality in data set [3] (10 mg/L, 72 h) of 100%. In data set [3] (100 mg/L, 48 h), the “observation of zebrafish embryo development” value is recorded as “all the zebrafish embryos died”. The “Body length (72 h)” value is 3.97 ± 0.06 mm in data set [3] (72 h, 0.01 mg/L); 3.88 ± 0.15 mm in data set [3] (72 h, 0.1 mg/L); 3.97 ± 0.08 mm in data set [3] (72 h, 1 mg/L); 3.94 ± 0.14 mm in data set [4] (0.1 mg/L); 3.95 ± 0.09 mm in data set [4] (0.3 mg/L); 3.77 ± 0.18 mm in data set [4] (1 mg/L). In addition, the “Hatching number (72 h)” value is reported as 25 in data set [3] (72 h, 0.01 mg/L); 22 in data set [3] (72 h, 0.1 mg/L); 17 in data set [3] (72 h, 1 mg/L); 0 in data set [3] (72 h, 10 mg/L); 0 in data set [3] (72 h, 100 mg/L); 22 in data set [4] (0.1 mg/L). Also, the “Hatching number (72 h)” value turned out to be 20 in data set [4] (0.3 mg/L), 17 in data set [4] (1 mg/L), 0 in data set [4] (3 mg/L) and 0 in data set [4] (10 mg/L). Further, the “Heartbeat (72 h)” value was determined as 125 ± 2.16 per min in data set [3] (72 h, 0.01 mg/L); 124 ± 2.25 per min in data set [3] (72 h, 0.1 mg/L); 124 ± 1.67 per min in data set [3] (72 h, 1 mg/L); 125 ± 2.40 per min in data set [4] (0.1 mg/L); 125 ± 2.48 per min in data set [4] (0.3 mg/L); 126 ± 2.56 per min in data set [4] (1 mg/L). In addition, the “Unhatching number (72 h)” value is reported as 5 in data set [3] (72 h, 0.01 mg/L); 8 in data set [3] (72 h, 0.1 mg/L); 11 in data set [3] (72 h, 1 mg/L); 0 in data set [3] (72 h, 10 mg/L); 0 in data set [3] (72 h, 100 mg/L); 0 in data set [4] (0.1 mg/L). For the same compound, the “Unhatching number (72 h)” value in data set [4] (0.3 mg/L) turned out to be 2; in data set [4] (1 mg/L), 0; in data set [4] (3 mg/L), 2; in data set [4] (10 mg/L), 0. Further, the hatching rate in data set [3] (72 h, 1 mg/L) was determined as 56.7%; in data set [3] (72 h, 10 mg/L), 0%; in data set [4] (1 mg/L, 72 h), 56.67%.
